Measured values as given in ChEMBL document CHEMBL1201862, “PubChem BioAssay data set” (2004).
Activity calls are given as the source filed them.

What was measured:
[1] = tested on: Escherichia coli; assay: microbe, parasite or virus in culture
[2] = molecular target: T1, Bcl-2-related protein A1 (Mus musculus, UniProt Q07440); format: functional;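 note: confirmatory dose–response counterscreen on Bfl-1, used to check hits from a UBC13 polyubiquitin inhibitor campaign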
T1 sequence (Q07440 whole entry): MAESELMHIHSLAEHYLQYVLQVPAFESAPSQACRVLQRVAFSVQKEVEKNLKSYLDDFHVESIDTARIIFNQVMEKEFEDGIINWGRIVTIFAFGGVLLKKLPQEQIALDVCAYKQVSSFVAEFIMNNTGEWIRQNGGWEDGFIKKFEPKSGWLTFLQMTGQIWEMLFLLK

[3] = molecular target: T2, Ubiquitin-conjugating enzyme E2 N (Homo sapiens, UniProt P61088); format: functional
T2 sequence (P61088 whole entry): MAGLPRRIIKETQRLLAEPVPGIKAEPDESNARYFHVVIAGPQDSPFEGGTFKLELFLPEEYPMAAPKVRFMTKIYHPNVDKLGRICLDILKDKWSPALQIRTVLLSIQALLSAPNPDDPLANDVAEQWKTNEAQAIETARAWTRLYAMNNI

[4] = molecular target: T2, Ubiquitin-conjugating enzyme E2 N; format: functional; remark: listed apart in the source
[5] = molecular target: Voltage-gated inwardly rectifying potassium channel KCNH2 (Homo sapiens, UniProt Q12809); conditions: Potency;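 note: confirmatory quantitative high-throughput screen measuring inhibition of hERG channel activity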
Chain of Voltage-gated inwardly rectifying potassium channel KCNH2 (Q12809 whole entry): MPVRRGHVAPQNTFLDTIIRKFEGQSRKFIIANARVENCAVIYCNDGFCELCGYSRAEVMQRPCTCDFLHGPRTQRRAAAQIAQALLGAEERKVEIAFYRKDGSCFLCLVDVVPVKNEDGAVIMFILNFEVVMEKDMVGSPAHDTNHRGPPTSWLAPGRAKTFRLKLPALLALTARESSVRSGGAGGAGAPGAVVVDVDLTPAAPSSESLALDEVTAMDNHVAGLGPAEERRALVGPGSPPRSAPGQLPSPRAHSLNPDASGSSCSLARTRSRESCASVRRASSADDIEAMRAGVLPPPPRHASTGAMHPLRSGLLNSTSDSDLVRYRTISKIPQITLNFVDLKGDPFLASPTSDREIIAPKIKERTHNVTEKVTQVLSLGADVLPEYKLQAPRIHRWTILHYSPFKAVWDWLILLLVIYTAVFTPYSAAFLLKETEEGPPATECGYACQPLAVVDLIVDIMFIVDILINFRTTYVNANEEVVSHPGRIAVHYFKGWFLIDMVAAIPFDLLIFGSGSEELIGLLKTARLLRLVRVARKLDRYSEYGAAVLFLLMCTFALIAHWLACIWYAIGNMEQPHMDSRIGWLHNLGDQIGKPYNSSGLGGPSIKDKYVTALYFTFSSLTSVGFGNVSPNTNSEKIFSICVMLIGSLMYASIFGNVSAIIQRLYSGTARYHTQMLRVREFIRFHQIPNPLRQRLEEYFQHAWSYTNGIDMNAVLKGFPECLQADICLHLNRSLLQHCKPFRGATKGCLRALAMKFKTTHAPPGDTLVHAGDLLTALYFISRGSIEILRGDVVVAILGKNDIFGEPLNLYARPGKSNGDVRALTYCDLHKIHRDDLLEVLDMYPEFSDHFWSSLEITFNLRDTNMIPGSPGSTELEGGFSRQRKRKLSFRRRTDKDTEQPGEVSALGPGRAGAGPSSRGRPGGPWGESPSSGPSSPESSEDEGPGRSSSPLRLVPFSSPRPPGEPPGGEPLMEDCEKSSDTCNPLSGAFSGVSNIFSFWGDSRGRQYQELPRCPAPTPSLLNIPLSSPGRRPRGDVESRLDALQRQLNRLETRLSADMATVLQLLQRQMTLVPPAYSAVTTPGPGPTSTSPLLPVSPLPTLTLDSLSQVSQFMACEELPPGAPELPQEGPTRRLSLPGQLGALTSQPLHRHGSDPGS

[6] = decrease of insulin promoter-GFP reporter – imaging, high-content screening, mouse beta cells (AID 1628); format: functional; conditions: MIN6
[7] = reduction of Shn3 3'UTR-driven luciferase in osteoblasts – cell-based, Clone20 osteoblasts, firefly luciferase, cherry-picked, dose response (AID 624132); format: functional;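 note: firefly luciferase luminescence from reporter carrying the Shn3 3'UTR in osteoblasts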
[8] = loss of viability in HepG2 cells – cell-based, CellTiter-Glo, cherry-picked, cytotoxicity control for Shn3 inhibitor project, dose response (AID 624134); format: functional
[9] = non-specific 3'UTR reporter inhibition in Clone20-Shn3RL – cell-based, Renilla luciferase, cherry-picked, counter-screen for Shn3 inhibitor project, dose response (AID 624133); format: functional
[10] = MIN6 cell viability loss – mouse insulinoma, cytotoxicity control, dose response (AID 2122); format: functional;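 note: confirmatory high-throughput counterscreen run to flag cytotoxic compounds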
[11] = molecular target: T3, Microphthalmia-associated transcription factor (Homo sapiens, UniProt O75030); assay: reducers of TRPM1 reporter luminescence, concentration series – cell-based, SK-MEL-5, cherry-picked, set 3, MITF inhibitor project, dose response (AID 493073); format: functional;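 note: SK-MEL-5 melanoma cells with luciferase driven by the MITF target TRPM1 promoter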
T3 sequence (O75030 whole entry): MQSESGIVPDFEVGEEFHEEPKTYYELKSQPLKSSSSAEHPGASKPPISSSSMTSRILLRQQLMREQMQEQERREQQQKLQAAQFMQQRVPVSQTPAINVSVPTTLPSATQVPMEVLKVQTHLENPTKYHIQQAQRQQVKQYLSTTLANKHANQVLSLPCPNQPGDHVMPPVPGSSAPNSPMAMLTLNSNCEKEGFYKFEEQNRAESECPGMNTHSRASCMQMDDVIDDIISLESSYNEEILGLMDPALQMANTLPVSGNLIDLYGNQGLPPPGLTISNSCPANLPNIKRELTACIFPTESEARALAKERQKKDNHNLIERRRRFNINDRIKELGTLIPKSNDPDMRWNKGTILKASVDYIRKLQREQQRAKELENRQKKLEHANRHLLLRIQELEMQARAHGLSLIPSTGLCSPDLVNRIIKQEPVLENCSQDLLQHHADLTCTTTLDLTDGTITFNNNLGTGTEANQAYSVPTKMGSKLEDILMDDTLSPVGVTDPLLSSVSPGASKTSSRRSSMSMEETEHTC

[12] = molecular target: Phospholipase A2 (Homo sapiens, UniProt P04054); format: functional;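 note: confirmatory dose-response counterscreen on phospholipase A2, testing hits that came from an ultra-high-throughput screen for ATG4B inhibitors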
Chain of Phospholipase A2 (P04054 whole entry): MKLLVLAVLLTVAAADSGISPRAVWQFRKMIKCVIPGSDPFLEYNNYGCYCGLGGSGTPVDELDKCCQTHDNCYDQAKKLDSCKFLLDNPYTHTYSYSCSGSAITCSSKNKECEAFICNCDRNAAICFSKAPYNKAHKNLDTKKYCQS

[13] = molecular target: T4, Cysteine protease ATG4B (Homo sapiens, UniProt Q9Y4P1); format: functional;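 note: Fluorescence-based dose-response confirmation assay measuring inhibition of ATG4B activity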
T4 sequence (Q9Y4P1 whole entry): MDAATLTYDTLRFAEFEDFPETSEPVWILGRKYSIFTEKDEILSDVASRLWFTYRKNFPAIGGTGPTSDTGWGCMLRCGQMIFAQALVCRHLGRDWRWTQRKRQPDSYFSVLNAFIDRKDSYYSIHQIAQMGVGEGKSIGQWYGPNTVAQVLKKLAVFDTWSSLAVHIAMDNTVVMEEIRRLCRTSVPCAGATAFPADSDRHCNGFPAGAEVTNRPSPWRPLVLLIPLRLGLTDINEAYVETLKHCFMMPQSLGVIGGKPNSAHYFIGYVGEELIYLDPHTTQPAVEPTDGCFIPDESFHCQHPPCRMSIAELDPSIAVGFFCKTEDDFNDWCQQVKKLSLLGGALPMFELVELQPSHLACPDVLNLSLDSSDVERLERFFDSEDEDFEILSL

[14] = NIH3T3 cell viability loss – ATP luminescence, mouse fibroblasts, counter-screen, dose response (AID 2010); format: functional, cell-based;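 note: cells exposed to compound for about 90 hours before reading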
[15] = Trypanosoma cruzi growth suppression in host cells – NIH3T3 host cells, beta-gal luminescence, confirmation (AID 2044); format: functional, cell-based;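 note: intracellular parasites grown in NIH/3T3 mouse fibroblasts as host cells; luminescent beta-galactosidase reporter signal from transgenic T. cruzi replicating inside host cells; inhibitors lower the luminescence signal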
[16] = molecular target: Heat shock protein HSP 90-alpha (Homo sapiens, UniProt P07900); format: functional, organism-based
[17] = molecular target: T5, Corticotropin-releasing factor receptor 2/Corticotropin-releasing factor-binding protein (Homo sapiens, UniProt P24387+Q13324); assay: activators of CRF receptor 2 with binding protein – uHTS hits, confirmation (AID 602473); format: functional; conditions: read-out: EC50_Mean
T5 sequence (Q13324 whole entry): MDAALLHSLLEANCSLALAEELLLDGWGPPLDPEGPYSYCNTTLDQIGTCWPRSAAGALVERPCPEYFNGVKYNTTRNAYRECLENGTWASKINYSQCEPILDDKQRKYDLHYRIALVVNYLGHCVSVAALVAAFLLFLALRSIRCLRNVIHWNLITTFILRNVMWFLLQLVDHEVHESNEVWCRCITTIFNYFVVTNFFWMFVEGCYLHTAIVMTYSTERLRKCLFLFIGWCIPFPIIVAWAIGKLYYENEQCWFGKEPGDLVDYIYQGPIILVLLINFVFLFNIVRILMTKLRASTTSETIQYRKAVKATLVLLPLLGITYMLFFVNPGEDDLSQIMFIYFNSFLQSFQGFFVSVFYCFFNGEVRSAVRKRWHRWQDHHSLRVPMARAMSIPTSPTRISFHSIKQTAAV
T5 sequence (P24387 whole entry): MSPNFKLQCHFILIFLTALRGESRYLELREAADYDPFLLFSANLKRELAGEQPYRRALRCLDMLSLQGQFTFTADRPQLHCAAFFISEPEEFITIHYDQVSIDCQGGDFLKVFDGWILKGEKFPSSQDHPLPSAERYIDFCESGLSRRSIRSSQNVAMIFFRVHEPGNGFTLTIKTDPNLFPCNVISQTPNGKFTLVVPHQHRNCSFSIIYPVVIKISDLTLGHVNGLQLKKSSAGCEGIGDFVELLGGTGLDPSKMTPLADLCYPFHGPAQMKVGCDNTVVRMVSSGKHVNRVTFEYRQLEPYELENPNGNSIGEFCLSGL

[18] = molecular target: Cytochrome P450 2C9 (Homo sapiens, UniProt P11712)
Chain of Cytochrome P450 2C9 (P11712 whole entry): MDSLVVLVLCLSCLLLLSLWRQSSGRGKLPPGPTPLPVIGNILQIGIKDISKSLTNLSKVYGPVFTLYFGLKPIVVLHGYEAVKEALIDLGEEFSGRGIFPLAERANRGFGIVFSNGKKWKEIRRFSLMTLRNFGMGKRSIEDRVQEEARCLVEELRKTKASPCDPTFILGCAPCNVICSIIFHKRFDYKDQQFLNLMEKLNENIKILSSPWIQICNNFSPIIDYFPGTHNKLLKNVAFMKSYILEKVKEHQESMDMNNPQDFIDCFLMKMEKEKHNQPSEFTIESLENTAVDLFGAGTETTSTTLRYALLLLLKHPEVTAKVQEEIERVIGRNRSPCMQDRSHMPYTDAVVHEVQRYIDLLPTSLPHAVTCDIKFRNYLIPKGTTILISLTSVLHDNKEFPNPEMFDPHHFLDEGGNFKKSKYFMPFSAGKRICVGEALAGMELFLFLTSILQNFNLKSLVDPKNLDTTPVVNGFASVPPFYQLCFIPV

[19] = molecular target: T6, Cytochrome P450 1A2 (Homo sapiens, UniProt P05177);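 note: PubChem cytochrome P450 panel assay, CYP1A2 panel member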
T6 sequence (P05177 whole entry): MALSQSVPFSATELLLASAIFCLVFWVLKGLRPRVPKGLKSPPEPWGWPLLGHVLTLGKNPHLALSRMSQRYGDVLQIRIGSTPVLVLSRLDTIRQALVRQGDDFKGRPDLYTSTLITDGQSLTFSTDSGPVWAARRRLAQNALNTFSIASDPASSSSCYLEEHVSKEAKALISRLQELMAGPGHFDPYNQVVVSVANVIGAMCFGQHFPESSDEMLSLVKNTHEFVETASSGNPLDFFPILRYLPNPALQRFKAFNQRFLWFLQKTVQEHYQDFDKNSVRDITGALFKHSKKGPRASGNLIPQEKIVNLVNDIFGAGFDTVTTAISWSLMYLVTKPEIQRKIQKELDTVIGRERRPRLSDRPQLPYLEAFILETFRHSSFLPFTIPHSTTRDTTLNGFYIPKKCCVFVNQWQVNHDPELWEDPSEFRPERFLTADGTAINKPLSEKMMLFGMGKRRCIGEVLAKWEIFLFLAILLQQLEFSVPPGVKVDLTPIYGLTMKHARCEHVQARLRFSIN

[20] = molecular target: T7, RNA-binding protein pos-1 (Caenorhabditis elegans, UniProt G5EF15); assay: disruptors of C. elegans POS-1 RNA interaction – biochemical, fluorescence polarization, dose response (AID 1964);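 note: purified POS-1 fused to maltose binding protein made in E. coli; potency of compounds blocking POS-1 binding to fluorescent RNA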
T7 sequence (G5EF15 whole entry): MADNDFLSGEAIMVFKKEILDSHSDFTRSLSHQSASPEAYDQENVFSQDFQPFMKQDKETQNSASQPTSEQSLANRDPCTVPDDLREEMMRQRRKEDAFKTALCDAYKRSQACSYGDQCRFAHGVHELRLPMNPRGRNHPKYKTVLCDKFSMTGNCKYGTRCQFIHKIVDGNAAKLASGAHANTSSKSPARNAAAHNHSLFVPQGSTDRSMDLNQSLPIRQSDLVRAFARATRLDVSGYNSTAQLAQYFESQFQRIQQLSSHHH

[21] = molecular target: Troponin, cardiac muscle (Homo sapiens, UniProt P19429+P45379+P63316); assay: Fluorescence-based biochemical high throughput dose response assay for activators of the calcium sensitivity of cardiac Regulated Thin Filaments (RTF). [Related pubchem assays (depositor defined):AID493008, AID493018, AID504382, AID504383]; format: protein-complex assay
[22] = molecular target: T8, Zinc finger protein mex-5 (Caenorhabditis elegans, UniProt Q9XUB2); assay: potency of MEX-5 RNA-binding blockers – biochemical, C. elegans, fluorescence polarization, dose response (AID 1960)
T8 sequence (Q9XUB2 whole entry): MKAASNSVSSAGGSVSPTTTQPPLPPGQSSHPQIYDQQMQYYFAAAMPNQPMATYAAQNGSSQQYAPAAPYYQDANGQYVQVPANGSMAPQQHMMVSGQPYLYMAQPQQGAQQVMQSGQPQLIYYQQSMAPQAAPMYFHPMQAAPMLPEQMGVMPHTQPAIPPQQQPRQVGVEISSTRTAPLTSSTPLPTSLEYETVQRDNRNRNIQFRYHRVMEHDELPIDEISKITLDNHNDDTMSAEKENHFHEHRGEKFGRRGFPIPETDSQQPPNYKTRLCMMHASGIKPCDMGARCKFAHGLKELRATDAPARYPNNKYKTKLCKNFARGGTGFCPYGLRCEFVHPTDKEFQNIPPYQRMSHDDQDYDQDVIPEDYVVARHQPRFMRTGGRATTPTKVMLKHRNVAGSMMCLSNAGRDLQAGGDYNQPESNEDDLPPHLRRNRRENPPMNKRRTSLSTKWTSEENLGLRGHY

[23] = molecular target: Cytochrome P450 2C19 (Homo sapiens, UniProt P33261); assay: Cytochrome panel assay with activity outcomes. Panel member name: p450-cyp2c19 Compounds with AC50 equal or less than 10 uM are considered active; format: functional; conditions: read-out: AC50
Chain of Cytochrome P450 2C19 (P33261 whole entry): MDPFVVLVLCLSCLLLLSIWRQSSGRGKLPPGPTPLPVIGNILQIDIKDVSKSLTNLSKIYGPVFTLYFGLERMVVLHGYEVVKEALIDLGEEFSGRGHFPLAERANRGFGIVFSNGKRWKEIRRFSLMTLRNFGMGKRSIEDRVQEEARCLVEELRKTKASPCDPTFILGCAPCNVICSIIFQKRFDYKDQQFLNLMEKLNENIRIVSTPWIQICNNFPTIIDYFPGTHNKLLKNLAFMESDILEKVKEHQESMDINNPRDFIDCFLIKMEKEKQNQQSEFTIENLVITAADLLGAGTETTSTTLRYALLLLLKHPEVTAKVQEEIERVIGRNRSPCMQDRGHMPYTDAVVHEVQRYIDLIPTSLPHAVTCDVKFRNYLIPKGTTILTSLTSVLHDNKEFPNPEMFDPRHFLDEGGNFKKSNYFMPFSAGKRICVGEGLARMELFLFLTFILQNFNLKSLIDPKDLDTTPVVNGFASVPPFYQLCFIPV

[24] = Luminescence Cell-Based Dose Retest to Confirm Inhibitors of Cancer Stem Cells. [Related pubchem assays (depositor defined):AID2717, AID2721]; format: functional; conditions: Homo sapiens
[25] = tested on: Vero; assay: cells; format: functional; conditions: Chlorocebus sabaeus
[26] = tested on: Vero; assay: cells; format: functional, cell-based; conditions: Chlorocebus sabaeus

## CS(=O)(=O)N1CCN(C(=O)c2cccnc2)CC1
[1]
  AC50: > 150 µM (inactive)

## CC1(C)Cc2c(sc(NC(=O)C(=O)NCCCN3CCOCC3)c2C(N)=O)CO1
[2]
  IC50: > 20 µM (inactive)
[3]
  IC50: 7.92 µM (active)
[4]
  IC50: 2.14 µM (active)

## CC(O)[C@@H](O)[C@H]1CNc2nc(N)[nH]c(=O)c2N1 (some centres not stated)
[5]
  AC50: 3.55 µM (inconclusive)

## Cc1ccc(NC(=O)CN(C)CC(=O)Nc2cccc(F)c2)cc1[N+](=O)[O-]
[6]
  IC50: 0.765 µM (active)
[7]
  AC50: 0.57 µM (active)
[8]
  AC50: > 70 µM (inactive)
[9]
  AC50: 10.1 µM (active)
[10]
  IC50: 0.487 µM (active)

## COc1ccc(C(=O)C(CN2CCOCC2)c2ccccc2)cc1 (configuration not stated)
[6]
  IC50: 4.99 µM (active)
[11]
  AC50: 7.29 µM (active)
[7]
  AC50: 5.59 µM (active)
[8]
  AC50: > 70 µM (inactive)
[9]
  AC50: 11.2 µM (active)
[10]
  IC50: 4.42 µM (active)

## CC1CC(C)CN(C(=O)c2ccc(C(=O)c3ccccc3)cc2)C1 (configuration not stated)
[12]
  IC50: 8.32 µM (active)
[13]
  IC50: 10.8 µM (active)

## Cc1sc2nc(C3CCCCC3)nc(SCC(=O)N3CC(=O)Nc4ccccc43)c2c1C
[12]
  IC50: 0.182 µM (active)
[13]
  IC50: 0.316 µM (active)

## CC(C)Cn1cnc2c(c(-c3ccccc3)c(-c3ccccc3)n2Cc2ccco2)c1=N
[6]
  IC50: 1.69 µM (active)
[14]
  EC50: 8.39 µM (active)
[15]
  EC50: 0.879 µM (active)
[10]
  IC50: 2.88 µM (active)

## CCCCCCOC(=O)Sc1nc2ccccc2o1
[16]
  AC50: 2.78 µM (active)

## COc1ccc(C(=O)Nc2cc(C(C)=O)c(/C=C/N(C)C)oc2=O)cc1
[17]
  EC50: 6.69 µM (active)
[18]
  AC50: 22.4 µM (inconclusive)
[19]
  AC50: 15.8 µM (inconclusive)
[20]
  EC50: 54.1 µM (active)
[21]
  EC50: 10.5 µM (inactive)
[22]
  EC50: 54.8 µM (active)
[23]
  AC50: 10 µM (inconclusive)

## O=C1c2cccc3cccc(c23)C(=O)N1CCN1CCN(CC(O)COCc2ccc(Cl)cc2)CC1 (configuration not stated)
[2]
  IC50: > 20 µM (inactive)
[3]
  IC50: 2.89 µM (active)
[4]
  IC50: 2.31 µM (active)

## C=C(C)C(=O)OCCCCCCCCCC
[5]
  AC50: 3.55 µM (inconclusive)

## CCN(Cc1ccccc1)S(=O)(=O)c1ccc(C(=O)N(CCCN(C)C)c2nc3cc4c(cc3s2)OCCO4)cc1
[2]
  IC50: > 20 µM (inactive)
[3]
  IC50: 2.81 µM (active)
[4]
  IC50: 2.93 µM (active)

## Cc1nc(NC(=O)c2ccco2)sc1-c1csc(Nc2ccc(Cl)cc2)n1
[24]
  AC50: 2.03 µM (active)
[1]
  AC50: 39.7 µM (active)

## Oc1cccc(Cl)c1Cl
[5]
  AC50: 5.01 µM (inconclusive)

## CCn1c(=O)c2nc(Cl)[nH]c2n(CC)c1=O
[25]
  CC50: > 25 µM (active)
[26]
  IC50: 17 µM (active)

## Oc1c(Br)cc(Br)cc1/C=N/c1ccc2c(c1)OCO2
[12]
  IC50: 7.68 µM (active)
[13]
  IC50: 4.43 µM (active)

## Oc1cc2c(cc1O)CN(C(=S)NCCc1ccc(Cl)cc1)CCC2 [CAPSAZEPINE]
[5]
  AC50: 11.2 µM (inconclusive)
